In the assay the target is T1, HPPD (p-hydroxyphenylpyruvate dioxygenase) (Arabidopsis thaliana, UniProt P93836).
T1 construct: gene HPD; recombinant, overexpressed in E. coli, tested in total soluble protein extract; 1SP9 given only as docking structure
T1 sequence (P93836 1-445): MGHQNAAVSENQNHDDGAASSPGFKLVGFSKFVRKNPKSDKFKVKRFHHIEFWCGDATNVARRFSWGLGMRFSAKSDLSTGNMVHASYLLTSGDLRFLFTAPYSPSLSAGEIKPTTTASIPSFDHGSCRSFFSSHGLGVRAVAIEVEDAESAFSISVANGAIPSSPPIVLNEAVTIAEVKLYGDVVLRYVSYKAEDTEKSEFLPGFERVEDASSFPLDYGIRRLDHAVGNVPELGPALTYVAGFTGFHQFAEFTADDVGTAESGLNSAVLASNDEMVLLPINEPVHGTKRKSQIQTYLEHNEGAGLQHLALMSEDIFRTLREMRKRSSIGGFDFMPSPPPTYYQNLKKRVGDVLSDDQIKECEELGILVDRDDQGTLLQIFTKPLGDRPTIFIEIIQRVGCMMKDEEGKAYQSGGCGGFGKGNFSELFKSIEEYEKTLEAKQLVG
The assay is described as follows: HPLC of homogentisate formed ([…] nm), dose-response. In kind it is biochemical.

These results are taken from PMC9459959, “Synthesis and Activity of 2-Acyl-cyclohexane-1,3-dione Congeners Derived from Peperomia Natural Products against the Plant p-Hydroxyphenylpyruvate Dioxygenase Herbicidal Molecular Target Site” (Plants, 2022).

Read-outs that look alike come from different tables or passages of the source. Bounds are passed on as bounds.

Regarding `COc1ccc(CCC(=O)C2=C(O)C(O)CCC2=O)cc1` (stereo not shown) [11c], for the setting “read-out: I50 (μM) ^ab”, the IC50 turned out to be 59.5 ± 11.8 µM. With `COc1cccc(C=CC(=O)C2C(=O)CCCC2=O)c1` [10a], the IC50 (read-out: I50 (μM) ^ab) came to 0.89 ± 0.1 µM. Same read-out and setting: under `Cc1noc2c1C(=O)C(O)C(C)(C)C2` (stereo not shown) [1g] stands over 100 µM; under `CC(=O)C1=C(O)C(O)C(C)(C)CC1=O` (stereo not shown) [1h], 166 ± 19.7 µM; under `CCCCCCCCCCCCCCCCC(=O)C1C(=O)CCCC1=O` [6a], 1.58 ± 0.2 µM. Regarding `COc1ccc(CCC(=O)C2C(=O)CC(C)(C)CC2=O)cc1` [11e], the IC50 (read-out: I50 (μM) ^ab) came to 12.9 ± 2.18 µM. Consider `CCCCCCCCCC(=O)C1=C(O)C(O)CCC1=O` (stereo not shown) [4d], for which the IC50 (read-out: I50 (μM) ^ab) was 1.25 ± 0.4 µM. In the case of `CCCCCCCCCc1noc2c1C(=O)C(O)CC2` (stereo not shown) [4c], the IC50 (read-out: I50 (μM) ^ab) was over 100 µM.

With `CC1(C)CC(=O)C(C(=O)C=Cc2ccc([N+](=O)[O-])cc2)C(=O)C1` [19b], the IC50 (read-out: I50 (μM) ^ab) turned out to be 27.5 ± 2.39 µM. On the same count and under the same terms, with `CCCCCCCCCCCCCCCCC(=O)C1C(=O)CC(C)(C)CC1=O` [6b] the figure was 1.7 ± 0.31 µM. On the same count and under the same terms, with `CC(=O)C1=C(O)C(O)CCC1=O` (stereo not shown) [1d] the figure was over 1000 µM; with `CC(=O)CCCC(=O)C1C(=O)CC(C)(C)CC1=O` [7b], 17.2 ± 2.6 µM; with `COc1ccc(C=CC(=O)C2C(=O)CC(C)(C)CC2=O)cc1` [11d], 141 ± 27 µM. Same read-out and setting: with `COc1ccc(C=CC(=O)C2C(=O)CCCC2=O)cc1OC` [12a] the figure was 9.16 ± 1.21 µM; with `O=C(C=Cc1ccccc1)C1C(=O)CCCC1=O` [8a], 5.43 ± 0.58 µM. `Cc1noc2c1C(=O)CCC2` [1a]: the IC50 (read-out: I50 (μM) ^ab) is over 100 µM. With `COc1cccc(C=CC(=O)C2C(=O)CC(C)(C)CC2=O)c1` [10c], the IC50 (read-out: I50 (μM) ^ab) is 6.4 ± 1.2 µM. Still for that read-out and setting: under `CC(=O)C1C(=O)CC(C)(C)CC1=O` [1f] stands 53.1 ± 17.1 µM; under `CC1(C)CC(=O)C(C(=O)C=Cc2ccccc2)C(=O)C1` [8d], 58.6 ± 8.67 µM; under `CCCCCC(=O)C1=C(O)C(O)CCC1=O` (stereo not shown) [3d], 15.8 ± 4.9 µM. Regarding `COc1ccc(CCC(=O)C2C(=O)CC(C)(C)CC2=O)cc1OC` [12d], under “read-out: I50 (μM) ^ab”, the IC50 is 8.69 ± 1.32 µM.

Regarding `CC(=O)CCCC(=O)C1C(=O)CCCC1=O` [7a], the IC50 (read-out: I50 (μM) ^ab) turned out to be 9.6 ± 1.4 µM.

As for `CCCCCC(=O)C1C(=O)CCCC1=O` [3b], under “read-out: I50 (μM) ^ab”, the IC50 is 2.93 ± 0.47 µM. Regarding `CCCC(=O)C1C(=O)CCCC1=O` [2a], for the setting “read-out: I50 (μM) ^ab”, the IC50 came to 35.1 ± 6.24 µM. The same measure, in the same setting: under `O=C(C=Cc1cccc(Br)c1)C1C(=O)CCCC1=O` [18a] stands 0.82 ± 0.08 µM. For `CCCCCc1noc2c1C(=O)CCC2` [3a], the IC50 (read-out: I50 (μM) ^ab) is over 100 µM. Still for that read-out and setting: with `Cc1ccccc1CCC(=O)C1C(=O)CCCC1=O` [9b] the figure was 0.97 ± 0.09 µM; with `CCCCCCCCCc1noc2c1C(=O)CCC2` [4a], over 100 µM; with `Cc1ccccc1C=CC(=O)C1C(=O)CC(C)(C)CC1=O` [9c], 28.7 ± 8.7 µM. Same read-out and setting: under `O=C1CCCC(=O)C1C(=O)CCc1ccc(Cl)cc1` [16b] stands 0.24 ± 0.02 µM; under `O=C(C=Cc1ccc([N+](=O)[O-])cc1)C1C(=O)CCCC1=O` [19a], 7.61 ± 0.89 µM.

Consider `CC1(C)CC(=O)C(C(=O)CCc2ccccc2)C(=O)C1` [8e], for which, for the setting “read-out: I50 (μM) ^ab”, the IC50 is 2.17 ± 0.37 µM.

In the case of `CC1(C)CC(=O)C(C(=O)CCc2ccc(Cl)cc2)C(=O)C1` [16d], the IC50 (read-out: I50 (μM) ^ab) came out at 2.05 ± 0.19 µM. Still for that read-out and setting: with `CCCCCc1noc2c1C(=O)C(O)CC2` (stereo not shown) [3c] the figure was over 100 µM; with `COc1cccc(CCC(=O)C2C(=O)CCCC2=O)c1` [10b], 0.31 ± 0.04 µM. In the case of `CN(C)c1ccc(CCC(=O)C2C(=O)CCCC2=O)cc1` [15b], the IC50 (read-out: I50 (μM) ^ab) came to 4.47 ± 0.51 µM. For the compound `Cc1ccccc1C=CC(=O)C1C(=O)CCCC1=O` [9a], where the note is “read-out: I50 (μM) ^ab”, the IC50 stood at 1.2 ± 0.14 µM. Still for that read-out and setting: under `CC1(C)CC(=O)C(C(=O)C=Cc2ccc(Br)cc2)C(=O)C1` [17c] stands 8.34 ± 1.57 µM; under `O=C(C=Cc1ccc(Br)cc1)C1C(=O)CCCC1=O` [17a], 7.55 ± 0.93 µM; under `COc1cc(C=CC(=O)C2C(=O)CC(C)(C)CC2=O)cc(OC)c1OC` [14c], 2.22 ± 0.5 µM. The same measure, in the same setting: under `CCCCCCCCCCCc1noc2c1C(=O)C(O)C(C)(C)C2` (stereo not shown) [5g] stands over 100 µM; under `CCCCCCCCCCCc1noc2c1C(=O)CCC2` [5a], over 100 µM; under `CCCCCCCCCCCc1noc2c1C(=O)C(O)CC2` (stereo not shown) [5c], over 100 µM. The same measure, in the same setting: with `CCCCCCCCCCCC(=O)C1C(=O)CC(C)(C)CC1=O` [5f] the figure was 0.77 ± 0.11 µM. As for `COc1cc(C=CC(=O)C2C(=O)CCCC2=O)cc(OC)c1OC` [14a], where the note is “read-out: I50 (μM) ^ab”, the IC50 turned out to be 2.06 ± 0.13 µM. With `Cc1noc2c1C(=O)CC(C)(C)C2` [1e], the IC50 (read-out: I50 (μM) ^ab) was over 100 µM. On to `COc1cccc(CCC(=O)C2C(=O)CC(C)(C)CC2=O)c1` [10d], for which the IC50 (read-out: I50 (μM) ^ab) turned out to be 1.5 ± 0.17 µM. Take `O=C(/C=C/c1ccccc1)C1=C(O)C(O)CCC1=O` (stereo not shown) [8c]: the IC50 (read-out: I50 (μM) ^ab) amounted to 59 ± 3.16 µM. Regarding `CCCCCCCCCC(=O)C1C(=O)CCCC1=O` [4b], the IC50 (read-out: I50 (μM) ^ab) worked out at 0.46 ± 0.06 µM. Same read-out and setting: with `CCCCCCCCCC(=O)C1C(=O)CC(C)(C)CC1=O` [4e] the figure was 2.66 ± 0.95 µM. Same read-out and setting: under `Cc1noc2c1C(=O)C(O)CC2` (stereo not shown) [1c] stands over 100 µM. As to `CS(=O)(=O)c1ccc(C(=O)C2C(=O)CCCC2=O)c(Cl)c1` [sulcotrione, reference compound], the IC50 (15 min incubation, slow tight-binding class, E. coli total soluble protein extract, positive control, read-out: I50app) turned out to be 0.25 ± 0.02 µM. `O=C(/C=C/c1ccc(Br)cc1)C1=C(O)C(O)CCC1=O` (stereo not shown) [17b]: under “read-out: I50 (μM) ^ab”, the IC50 was determined as 28.7 ± 4.82 µM. On to `CC(=O)C1C(=O)CCCC1=O` [1b], for which the IC50 (read-out: I50 (μM) ^ab) is 23.1 ± 4.34 µM. Still for that read-out and setting: with `CN(C)c1ccc(CCC(=O)C2C(=O)CC(C)(C)CC2=O)cc1` [15d] the figure was 3.46 ± 0.64 µM; with `CCCCCCCCCCCc1noc2c1C(=O)CC(C)(C)C2` [5e], over 100 µM; with `COc1ccc(CCC(=O)C2C(=O)CCCC2=O)cc1OC` [12b], 1.35 ± 0.18 µM. Still for that read-out and setting: under `CCCCCC(=O)C1C(=O)CC(C)(C)CC1=O` [3e] stands 4.17 ± 0.45 µM. Regarding `COc1ccc(C=CC(=O)C2C(=O)CCCC2=O)cc1` [11a], where the note is “read-out: I50 (μM) ^ab”, the IC50 was 12.3 ± 1.6 µM. Take `CCCCCCCCCCCC(=O)C1=C(O)C(O)CCC1=O` (stereo not shown) [5d]: the IC50 (read-out: I50 (μM) ^ab) is 0.18 ± 0.02 µM. As for `CCCCCCCCCCCC(=O)C1C(=O)CCCC1=O` [5b], under “read-out: I50 (μM) ^ab”, the IC50 was 0.3 ± 0.03 µM. Still for that read-out and setting: with `O=C1CCCC(=O)C1C(=O)CCc1ccccc1` [8b] the figure was 1.27 ± 0.09 µM; with `COc1ccc(C=CC(=O)C2C(=O)CC(C)(C)CC2=O)cc1OC` [12c], 14.1 ± 2.21 µM. On the same count and under the same terms, under `COc1ccc(CCC(=O)C2C(=O)CCCC2=O)cc1` [11b] stands 2.36 ± 0.3 µM; under `CC1(C)CC(=O)C(C(=O)C=Cc2cccc(Br)c2)C(=O)C1` [18b], 2.42 ± 0.25 µM. With `COc1cc(CCC(=O)C2C(=O)CC(C)(C)CC2=O)cc(OC)c1OC` [14d], the IC50 (read-out: I50 (μM) ^ab) is 2.29 ± 0.25 µM. Same read-out and setting: with `CCCC(=O)C1C(=O)CC(C)(C)CC1=O` [2b] the figure was 16.6 ± 4.36 µM.
